Assay results taken from ChEMBL document CHEMBL4311942, “Design of Trp-Rich Dodecapeptides with Broad-Spectrum Antimicrobial Potency and Membrane-Disruptive Mechanism” (J Med Chem, 2019).
Converted amounts (≈) assume the structure as drawn. The source made the active and inactive calls. The calls are words filed in the database; no cut-off is given here. Where a SMILES comes first, the peptide text is derived from it.

Key:
[1] = tested on: Escherichia coli; assay: Induction of cell membrane disruption in Escherichia coli ATCC 25922 assessed as seperation of cytoplasmic membrane from outer membrane at 2 times MIC after 60 mins by transmission electron microscopy; type: organism-based
[2] = tested on: Staphylococcus aureus; assay: Antibacterial activity against Staphylococcus aureus ATCC 29213 incubated for 2 hrs in presence of sodium phosphate buffer at pH 4 by broth microdilution method; type: functional; conditions: ATCC 29213, 2 h
[3] = tested on: Escherichia coli; assay: Induction of cell membrane disruption in Escherichia coli ATCC 25922 after 30 mins by propidium iodide-staining based flow cytometric analysis; type: organism-based
[4] = tested on: Escherichia coli; assay: Antibacterial activity against Escherichia coli ATCC 25922 in presence of KCl by broth microdilution method; type: functional
[5] = tested on: Escherichia coli; assay: Induction of outer membrane permeabilization in Escherichia coli UB1005 assessed as increase in NPN uptake by spectrofluorophotometric assay; type: organism-based
[6] = tested on: Staphylococcus aureus; assay: Induction of cell membrane disruption in Staphylococcus aureus ATCC 29213 assessed as apperance of rough membrane with discrete blebs at 1 times MIC after 60 mins by field emission scanning electron microscopy; type: organism-based
[7] = tested on: Staphylococcus aureus; assay: Induction of cell membrane disruption in Staphylococcus aureus ATCC 29213 assessed as collapsed membrane at 1 to 2 times MIC after 60 mins by transmission electron microscopy; type: organism-based
[8] = tested on: Staphylococcus aureus; assay: Antibacterial activity against Staphylococcus aureus ATCC 29213 in presence of NH4Cl by broth microdilution method; type: functional
[9] = tested on: Staphylococcus aureus; assay: Induction of cell membrane disruption in Staphylococcus aureus ATCC 29213 after 30 mins by propidium iodide-staining based flow cytometric analysis; type: organism-based
[10] = tested on: Escherichia coli; assay: Antibacterial activity against Escherichia coli ATCC 25922 in presence of H202 by broth microdilution method; type: functional
[11] = tested on: Staphylococcus aureus; assay: Antibacterial activity against Staphylococcus aureus ATCC 29213 in presence of MgCl2 by broth microdilution method; type: functional
[12] = tested on: Escherichia coli; assay: Antibacterial activity against Escherichia coli ATCC 25922 in presence of NaBH4 by broth microdilution method; type: functional
[13] = tested on: Staphylococcus aureus; assay: Induction of cell membrane disruption in Staphylococcus aureus ATCC 29213 assessed as propidium iodide-positive cells at 2 times MIC after 30 mins by flow cytometric analysis (reference value: 0.3%)
[14] = tested on: Escherichia coli; assay: Antibacterial activity against Escherichia coli ATCC 25922 incubated for 18 to 24 hrs by broth microdilution method; type: functional
[15] = tested on: Staphylococcus aureus; assay: Antibacterial activity against Staphylococcus aureus ATCC 29213 in presence of NaCl by broth microdilution method; type: functional
[16] = tested on: Escherichia coli; assay: Antibacterial activity against Escherichia coli ATCC 25922 in presence of NaCl by broth microdilution method; type: functional
[17] = Drug localization in Staphylococcus aureus ATCC 29213 at 2 times MIC incubated for 1 hr using FITC-labelled peptides by propidium iodide-staining based super resolution fluorescent microscopy; type: ADME
[18] = tested on: Staphylococcus aureus; assay: Antibacterial activity against Staphylococcus aureus ATCC 29213 in presence of 12.5% serum by broth microdilution method; type: functional
[19] = tested on: Escherichia coli; assay: Disruption of Escherichia coli ATCC 25922 cell membrane assessed as induction of arachnoid damage at 2 times MIC after 60 mins by field emission scanning electron microscopy; type: organism-based
[20] = tested on: Salmonella typhimurium; assay: Antibacterial activity against Salmonella enterica serovar typhimurium C77-31 incubated for 18 to 24 hrs by broth microdilution method; type: functional, Salmonella enterica subsp. enterica serovar Typhimurium
[21] = tested on: Staphylococcus aureus; assay: Antibacterial activity against Staphylococcus aureus ATCC 29213 in presence of ZnCl2 by broth microdilution method; type: functional
[22] = tested on: Acinetobacter baumannii; assay: Antibacterial activity against Acinetobacter baumannii AB1902 clinical isolate incubated for 18 to 24 hrs by broth microdilution method; type: functional
[23] = Drug localization in Escherichia coli ATCC 25922 at 1 to 2 times MIC incubated for 1 hr using FITC-labelled peptides by propidium iodide-staining based regular fluorescent microscopy; type: ADME
[24] = tested on: Staphylococcus aureus; assay: Antibacterial activity against Staphylococcus aureus ATCC 29213 in presence of KCl by broth microdilution method; type: functional
[25] = tested on: Staphylococcus epidermidis; assay: Antibacterial activity against Staphylococcus epidermidis ATCC 12228 incubated for 18 to 24 hrs by broth microdilution method; type: functional
[26] = tested on: Escherichia coli; assay: Bactericidal activity against Escherichia coli ATCC 25922 at 4 times MIC after 60 mins by time kill assay relative to control; type: functional
[27] = tested on: Escherichia coli; assay: Antibacterial activity against Escherichia coli ATCC 25922 in presence of NH4Cl by broth microdilution method; type: functional
[28] = tested on: Escherichia coli; assay: Antibacterial activity against Escherichia coli UB1005 incubated for 18 to 24 hrs by broth microdilution method; type: functional
[29] = tested on: Staphylococcus aureus; assay: Antibacterial activity against Staphylococcus aureus ATCC 29213 in presence of H202 by broth microdilution method; type: functional
[30] = tested on: Escherichia coli; assay: Antibacterial activity against Escherichia coli ATCC 25922 in presence of 25% serum by broth microdilution method; type: functional
[31] = tested on: Escherichia coli; assay: Antibacterial activity against ciprofloxacin-resistant Escherichia coli ATCC 25922 incubated for 18 to 24 hrs; type: functional
[32] = tested on: Pseudomonas aeruginosa; assay: Antibacterial activity against Pseudomonas aeruginosa PAO1 at sub-MIC treated over 35 serial passages by resistant development assay; type: functional, organism-based
[33] = tested on: Escherichia coli; assay: Induction of cell membrane disruption in Escherichia coli ATCC 25922 assessed as appearance of membrane atrophy at 1 times MIC after 60 mins by field emission scanning electron microscopy; type: organism-based
[34] = tested on: Escherichia coli; assay: Bactericidal activity against Escherichia coli ATCC 25922 at 1 times MIC after 120 mins by time kill assay; type: functional, organism-based
[35] = tested on: Pseudomonas aeruginosa; assay: Antibacterial activity against Pseudomonas aeruginosa 25349 clinical isolate incubated for 18 to 24 hrs by broth microdilution method; type: functional
[36] = Cytotoxicity against mouse RAW264.7 cells assessed as cell survival at […] after 24 hrs by MTT assay relative to control; type: cell-based; conditions: read-out: Activity
[37] = tested on: Staphylococcus aureus; assay: Bactericidal activity against Staphylococcus aureus ATCC 29213 at 4 times MIC after 30 mins by time kill assay; type: functional, organism-based
[38] = tested on: Staphylococcus aureus; assay: Antibacterial activity against Staphylococcus aureus 11011 incubated for 18 to 24 hrs by broth microdilution method; type: functional
[39] = tested on: Staphylococcus aureus; assay: Antibacterial activity against Staphylococcus aureus ATCC 29213 incubated for 2 hrs in presence of sodium phosphate buffer at pH 2 by broth microdilution method; type: functional; conditions: ATCC 29213, 2 h
[40] = tested on: Escherichia coli; assay: Bactericidal activity against Escherichia coli ATCC 25922 assessed as reduction in bacterial growth at 4 times MIC after 30 mins by time kill assay relative to control; type: functional
[41] = tested on: Staphylococcus aureus; assay: Antibacterial activity against Staphylococcus aureus ATCC 29213 in presence of CaCl2 by broth microdilution method; type: functional
[42] = tested on: Escherichia coli; assay: Antibacterial activity against Escherichia coli ATCC 25922 using preheated compound at 100 degreeC for 1 hr by broth microdilution method; type: functional; conditions: ATCC 25922, 1 h
[43] = tested on: Escherichia coli; assay: Induction of cell membrane disruption in Escherichia coli ATCC 25922 assessed as leakage of cellular contents at 1 to 2 times MIC after 60 mins by transmission electron microscopy; type: organism-based
[44] = tested on: Escherichia coli; assay: Antibacterial activity against Escherichia coli 20411 clinical isolate incubated for 18 to 24 hrs by broth microdilution method; type: functional
[45] = Drug localization in Staphylococcus aureus ATCC 29213 at 1 to 2 times MIC incubated for 1 hr using FITC-labelled peptides by propidium iodide-staining based regular fluorescent microscopy; type: ADME

## CC(C)C[C@H](NC(=O)[C@H](CCCNC(=N)N)NC(=O)[C@H](Cc1c[nH]c2ccccc12)NC(=O)[C@H](CCCNC(=N)N)NC(=O)[C@@H](NC(=O)[C@H](CCCCN)NC(=O)[C@H](Cc1c[nH]c2ccccc12)NC(=O)[C@H](CCCNC(=N)N)NC(=O)[C@H](CC(C)C)NC(=O)[C@H](CCCNC(=N)N)NC(=O)[C@@H](N)Cc1c[nH]c2ccccc12)[C@@H](C)O)C(=O)N[C@@H](CCCCN)C(N)=O (H-WRLRWKTRWRLK-NH2)
[1]
  Activity: Active
[2]
  MIC: 4 µM
[3]
  Activity: Dose-dependent effect
[4]
  MIC: 2 µM
[5]
  Activity: Dose-dependent effect
[6]
  Activity: Active
[7]
  Activity: Active
[8]
  MIC: 4 µM
[9]
  Activity: Dose-dependent effect
[10]
  MIC: 2 µM
[11]
  MIC: 2 µM
[12]
  MIC: 4 µM
[13]
  Activity: 97.7%
[14]
  MIC: 4 µM (≈ 7.14 µg/mL)
[15]
  MIC: 8 µM
[16]
  MIC: 4 µM
[17]
  Drug uptake: Active
[18]
  MIC: 4 µM
[19]
  Activity: Active
[20]
  MIC: 2 µM (≈ 3.57 µg/mL)
[21]
  MIC: 4 µM
[22]
  MIC: 4 µM (≈ 7.14 µg/mL)
[23]
  Drug uptake: Active
[24]
  MIC: 2 µM
[25]
  MIC: 4 µM (≈ 7.14 µg/mL)
[26]
  Activity: 100%
[27]
  MIC: 1 µM
[28]
  MIC: 2 µM (≈ 3.57 µg/mL)
[29]
  MIC: 4 µM
[30]
  MIC: 4 µM
[31]
  MIC: 4 µM (≈ 7.14 µg/mL)
[32]
  Activity: Active
[33]
  Activity: Active
[34]
  Activity: inactive
[35]
  MIC: 8 µM (≈ 14.3 µg/mL)
[36]
  viability at 24 h, […]: ≤ 90%
[37]
  Activity: Active
[38]
  MIC: 2 µM (≈ 3.57 µg/mL)
[39]
  MIC: 4 µM
[40]
  log(activity): 1
[41]
  MIC: 4 µM
[42]
  MIC: 2 µM (≈ 3.57 µg/mL)
[43]
  Activity: Active
[44]
  MIC: 2 µM (≈ 3.57 µg/mL)
[45]
  Drug uptake: Active
